From the Kinase Knowledgebase extract (Sharma et al. 2016) come the findings set out here.

In this test the target is EGFR (UniProt P00533).
Sequence of EGFR (P00533 whole entry, looked up): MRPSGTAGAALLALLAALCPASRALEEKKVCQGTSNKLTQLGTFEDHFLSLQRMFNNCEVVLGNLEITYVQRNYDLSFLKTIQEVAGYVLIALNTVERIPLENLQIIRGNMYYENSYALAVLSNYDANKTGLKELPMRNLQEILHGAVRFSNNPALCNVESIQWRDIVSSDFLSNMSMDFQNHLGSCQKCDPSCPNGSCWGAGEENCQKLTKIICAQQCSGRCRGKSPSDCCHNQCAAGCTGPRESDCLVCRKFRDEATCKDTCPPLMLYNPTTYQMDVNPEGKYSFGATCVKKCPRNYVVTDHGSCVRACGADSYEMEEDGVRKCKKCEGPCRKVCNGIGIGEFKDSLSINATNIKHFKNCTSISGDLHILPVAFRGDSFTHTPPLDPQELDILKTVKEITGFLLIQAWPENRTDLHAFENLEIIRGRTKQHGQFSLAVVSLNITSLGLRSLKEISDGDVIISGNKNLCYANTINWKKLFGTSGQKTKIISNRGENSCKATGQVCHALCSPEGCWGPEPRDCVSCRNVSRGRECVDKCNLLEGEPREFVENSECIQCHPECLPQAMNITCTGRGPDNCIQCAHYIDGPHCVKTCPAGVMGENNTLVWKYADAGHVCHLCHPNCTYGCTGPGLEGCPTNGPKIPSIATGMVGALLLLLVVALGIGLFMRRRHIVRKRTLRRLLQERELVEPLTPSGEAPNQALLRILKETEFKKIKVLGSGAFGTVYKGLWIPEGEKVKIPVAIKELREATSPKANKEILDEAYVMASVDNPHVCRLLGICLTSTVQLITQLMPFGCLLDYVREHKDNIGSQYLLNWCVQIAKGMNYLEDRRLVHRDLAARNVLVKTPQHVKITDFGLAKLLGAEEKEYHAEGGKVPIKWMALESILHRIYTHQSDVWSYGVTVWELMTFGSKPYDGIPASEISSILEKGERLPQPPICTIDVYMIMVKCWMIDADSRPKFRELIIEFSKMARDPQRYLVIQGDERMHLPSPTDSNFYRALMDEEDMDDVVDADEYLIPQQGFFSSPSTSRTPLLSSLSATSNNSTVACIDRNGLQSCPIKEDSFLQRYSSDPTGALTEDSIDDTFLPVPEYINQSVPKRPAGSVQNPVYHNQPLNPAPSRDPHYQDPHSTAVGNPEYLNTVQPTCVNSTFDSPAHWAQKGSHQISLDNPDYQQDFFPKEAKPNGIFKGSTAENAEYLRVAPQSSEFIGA
The IC50 is the concentration needed to halve the response being measured. A lower IC50 goes with higher potency. Regarding `C=CC(=O)NCCCNc1cc2c(Nc3ccc(Br)cc3F)ncnc2cc1OCC1CCN(C(=O)C=C)CC1`, the IC50 turned out to be 68 nM. With `C=CC(=O)NCCCNc1cc2c(Nc3ccc(Br)cc3F)ncnc2cc1OCC1CCN(C(=O)CC)CC1`, the concentration for half-maximal inhibition (IC50) worked out at 56 nM.

Take `C=CC(=O)Nc1cc2c(Nc3ccc(Br)cc3F)ncnc2cc1OCCNC(=O)CCCN(C)C`: the IC50 was 21 nM. The figure for `C=CC(=O)Nc1cc2c(Nc3ccc(Br)c(Cl)c3F)ncnc2cc1OCCNC(=O)CCCN(C)C` is 28 nM; for `C=CC(=O)NCCNc1cc2c(Nc3ccc(Br)cc3F)ncnc2cc1OCC1CCN(C)CC1` it is 76 nM. Next, `C=CC(=O)NCCCNc1cc2c(Nc3ccc(Br)cc3F)ncnc2cc1OCC1CCN(C)CC1`: 11 nM; `C=CC(=O)Nc1cc2c(Nc3ccc(Br)cc3F)ncnc2cc1OCCOC(=O)CC(=O)O`: 956 nM; `C=CC(=O)Nc1cc2c(Nc3ccc(Br)cc3F)ncnc2cc1OCCNC(=O)CC(C)N(C)C` (stereo not given): 325 nM. Next, `C=CC(=O)NCCCNc1cc2c(Nc3ccc(Br)cc3F)ncnc2cc1OCC1CCN(C(C)=O)CC1`: 35 nM; `C=CC(=O)Nc1cc2c(Nc3ccc(Br)cc3F)ncnc2cc1OCCNC(=O)CCC`: 32 nM.

As for `C=CC(=O)Nc1cc2c(Nc3ccc(Br)cc3F)ncnc2cc1OCCOC(=O)CC(=O)OCC`, the IC50 was determined as 246 nM. Next, `C=CC(=O)NCCC(=O)Nc1cc2c(Nc3ccc(Br)cc3F)ncnc2cc1OCC1CCN(C)CC1`: 80 nM. In the case of `C=CC(=O)Nc1cc2c(Nc3ccc(Br)cc3F)ncnc2cc1OCC(=O)NCCN(C)C`, the IC50 stood at 652 nM.

With `C=CC(=O)Nc1cc2c(Nc3ccc(Br)c(F)c3F)ncnc2cc1OCCNC(=O)CCCN(C)C`, the IC50 amounted to 568 nM. The figure for `C=CC(=O)NCCCNc1cc2c(Nc3ccc(F)c(F)c3F)ncnc2cc1OCC1CCN(C)CC1` is 12 nM.
